In publication PMC10535741, “Styrylpyridinium Derivatives for Fluorescent Cell Imaging” (Pharmaceuticals, 2023):
Entries after “also recorded” stand apart in the source; their conditions may differ.

Tests used:
[1] = tested on: HeLa (human epitheloid cervix carcinoma); experiment: in vitro; type: cell-based
Excerpt: (§1) For selected compounds, 6a–6f, we performed a determination of the cytotoxicity in a wider variety of cancer and non-cancerous cell lines (see Table S2, Supplementary Materials) in order to learn the characteristic features of selectivity or the similarity of biological properties.
(§2) The HT-1080 (human connective tissue fibrosarcoma, ATCC® CCL-121™), MH-22A (mouse hepatocarcinoma, ECACC Cat. No. 96121721), A-549 (human lung carcinoma, ATCC® CCL-185™), NIH3T3 (Swiss Albino mouse embryo fibroblast, ECACC Cat. No. 93061524), Hek293 (human embryonic kidney, ATCC® CRL-1573™), BHK-21 (Syrian hamster kidney, ATCC® CCL-10™), A-431 (human epidermoid carcinoma, ATCC® CRL-1555™), Saos-2 (human osteosarcoma, ATCC® HTB-85™), HeLa (human epitheloid cervix carcinoma, ATCC® CCL-2™), U937 (human myeloid leukaemia, ATCC® CRL-1593.2™), C6 (rat glioma, ATCC® CCL-107™), and B16-F10 (murine melanoma, ATCC® CRL-6475™) cell lines were obtained from the American Type Culture Collection (ATCC) and European Collection of Authenticated Cell Cultures (ECACC).
(§3) HT-1080, MH-22A, A-549, NIH3T3, BHK-21, A-431, HeLa, and B16-F10 cells were cultured in Dulbecco’s Modified Eagle’s Medium (DMEM) with 2 mM glutamine and 10% foetal bovine serum (FBS). Hek293 cells were cultured in Eagle’s Minimum Essential Medium with 10% foetal bovine serum. U937 cells were cultured in RPMI-1640 Medium with 2 mM glutamine and 10% foetal bovine serum. C6 cells were cultured in Ham’s F12 Medium with 2 mM glutamine and 10% foetal bovine serum. Saos-2 cells were cultured in McCoy’s 5a Medium with 2 mM glutamine and 10% foetal bovine serum. The cells were incubated at 37 °C with 5% CO2, 95% air, and complete humidity. Once ~90% confluence was reached, they were detached using 0.05% trypsin/EDTA and counted. The cells were plated at optimally determined densities for the logarithmic phase of growth. These cells were then suspended at a concentration of 4000 cells/well for HT-1080, MH-22A, A-549, NIH3T3, BHK-21, A-431, HeLa, B16-F10, Hek293, and Saos-2 cells and a concentration of 9000 cells/well for U937, C6, Hek293, and GM08402 cells and added onto a 96-well plate. For background absorption, some wells remained cell free, i.e., as a blank control. Cells were incubated for 72 h at 37 °C and 5% CO2 where they were exposed to a media containing serial dilutions of the investigated compounds (n = 3). Cell viability was measured using the 3-(4,5-dimethylthiazol-2-yl)-2,5-diphenyl-tetrazolium bromide (MTT) assay. In brief, after incubating with compounds, the culture medium was removed and fresh medium with 0.2 mg/mL MTT was added to each well of the plate. After incubation (3 h, 37 °C, 5% CO2), the medium with MTT solution was removed and replaced with 200 µL DMSO and 25 µL Sorenson’s glycine buffer (glycine 0.1 M, NaCl 0.1 M, pH: 10.5 with 0.1 M NaOH). The plate was shaken for 15 min at room temperature and the optical density (OD) of the wells was determined using a multichannel spectrophotometer (Thermo Scientific Multiskan EX) at 540 nm. The quantity of the control cells was taken in calculations as 100%. The IC50 value was calculated using the program Graph Pad Prism® 3.0.
(§4) The HT-1080 (human connective tissue fibrosarcoma, ATCC® CCL-121™), MH-22A (mouse hepatocarcinoma, ECACC Cat.No. 96121721), A-549 (human lung carcinoma, ATCC® CCL-185™), NIH 3T3 (mouse Swiss Albino embryo fibroblast, ECACC Cat.No. 93061524), Hek293 (human embryonic kidney, ATCC® CRL-1573™), BHK-21 (hamster Syrian kidney, ATCC® CCL-10™), A-431 (human epidermoid carcinoma, ATCC® CRL-1555™), Saos-2 (human oste osarcoma, ATCC® HTB-85™) HeLa (human epitheloid cervix carcinoma, ATCC® CCL-2™), U937 (human myeloid leukaemia, ATCC® CRL-1593.2™), C6 (rat glioma, ATCC® CCL-107™), B16-F10 (murine melanoma, ATCC® CRL-6475™) cell lines were obtained from American Type Culture Collection (ATCC) and European Collection of Authenticated Cell Cultures […]
(§5) Table S2. […]

[2] = tested on: U937 (human myeloid leukaemia); experiment: in vitro; type: cell-based
Excerpt: as §1, §2, §3, §4, §5

[3] = tested on: Hek293 (human embryonic kidney); experiment: in vitro; type: cell-based
Excerpt: as §1, §2, §3, §4, §5

[4] = tested on: Saos-2 (human osteosarcoma); experiment: in vitro; type: cell-based
Excerpt: as §1, §2, §3, §4, §5

[5] = tested on: A-431 (human epidermoid carcinoma); experiment: in vitro; type: cell-based
Excerpt: as §1, §2, §3, §4, §5

[6] = tested on: A-549 (human lung carcinoma); experiment: in vitro; type: cell-based
Excerpt: as §1, §2, §3, §4, §5

BMDMs = experiment: Confocal microscopy, localisation of the staining; type: cell-based, mouse; conditions: 5 μM, confocal microscopy with WGA Alexa Fluor 488 and DAPI
Excerpt: The stained BMDMs were studied using confocal microscopy to verify the membrane, cytoplasmic, or nuclear localisation of the staining (Figure 6). Wheat germ agglutinin (WGA) Alexa Fluor 488 (Invitrogen, W11261) was chosen for selective plasma membrane labelling and DAPI (Invitrogen, D1306) was selected for nucleus labelling. […] Furthermore, the SP compound 6e was compared with commercially available CM-DiI Dye (Invitrogen, ex/em: 553/570, Figure 6b).
For confocal microscopy, BMDMs were stained with 4 μM CellTracker™ CM-DiI dye (Cat. No. C7001; Invitrogen) or 5 μM compound 6e. Briefly, the cells were washed and then a dye solution in PBS was added to them. […] Then, the cells were stained with WGA Alexa Fluor 488 (Cat. No. W11261; Invitrogen) following the manufacturer’s instructions. Briefly, the cells were incubated with 1 μg/mL WGA solution in PBS at 37 °C. […] The fluorescence was detected as follows: a DPSS (561 nm) laser was used for excitation of compound 6e and CM-Dil, an argon (488 nm) laser was used for WGA, and a diode (405 nm) laser was used for DAPI. For fluorescence detection, HyD was used for compound 6e and CM-Dil (578 nm–636 nm) and PMT detectors were used for WGA (493 nm–739 nm) and DAPI (417 nm–498 nm), pinhole at 95 µm. The images were analysed using Leica Application Suite X 3.1.5. software (Leica Microsystems, Germany).

| Compound | Cytotoxicity IC50 HeLa [1] [µg/mL] | Cytotoxicity IC50 U937 [2] [µg/mL] | Cytotoxicity IC50 Hek-293 [3] [µg/mL] | Cytotoxicity IC50 Saos-2 [4] [µg/mL] | Cytotoxicity IC50 A-431 [5] [µg/mL] | Cytotoxicity IC50 A-549 [6] [µg/mL] | localisation of the staining in cells (BMDMs) |
| --- | --- | --- | --- | --- | --- | --- | --- |
| CCCCCCCCCCCCCCCC[n+]1ccc(C=Cc2cc(OC)c(OC)c(OC)c2)cc1.[Br-] [Compound 6b] | 0.82 | 1.39 | 0.38 | 0.60 | 1.10 | 0.98 | – |
| CCCCCCCCCCCCCCCC[n+]1ccc(C=CC=Cc2cc3c4c(c2)CCCN4CCC3)cc1.[Br-] [Compound 6e, 1-hexadecyl-4-(4-(2,3,6,7-tetrahydro-1H,5H-pyrido[3,2,1-ij]quinolin-9-yl)buta-1,3-dien-1-yl)pyridin-1-ium bromide] | – | – | – | – | – | – | strong fluorescent signal localised in the cell cytoplasm, whereas the cell nuclei were not stained; also recorded: localised in the cell cytoplasm and does not stain the cell nucleus; also recorded: localises within the cell cytoplasm and does not stain the cell nucleus |
